Data on 8 compounds can be found in ChEMBL document CHEMBL5291721, “A preclinical secondary pharmacology resource illuminates target-adverse drug reaction associations of marketed drugs” (Nat Commun, 2023).

Molecules are shown by their SMILES. A value given as a limit tells only on which side of the number the result lay.

Assay [1] deals with T1, Gastrin/cholecystokinin type B receptor (Homo sapiens, UniProt P32239).
T1 sequence (P32239 whole entry): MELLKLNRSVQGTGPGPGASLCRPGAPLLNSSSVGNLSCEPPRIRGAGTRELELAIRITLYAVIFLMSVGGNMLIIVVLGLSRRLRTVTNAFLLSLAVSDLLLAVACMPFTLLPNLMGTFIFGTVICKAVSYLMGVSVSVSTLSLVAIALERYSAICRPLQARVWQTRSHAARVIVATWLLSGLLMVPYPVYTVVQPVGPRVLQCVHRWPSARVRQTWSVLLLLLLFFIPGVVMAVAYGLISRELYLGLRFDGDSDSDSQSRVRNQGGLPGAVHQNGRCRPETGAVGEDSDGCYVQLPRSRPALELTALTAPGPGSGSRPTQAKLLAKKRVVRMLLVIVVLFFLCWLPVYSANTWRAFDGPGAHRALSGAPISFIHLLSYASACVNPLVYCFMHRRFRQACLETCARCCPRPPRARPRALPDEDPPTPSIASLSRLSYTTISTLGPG

Assay [2] addresses T2, Thromboxane A2 receptor (Homo sapiens, UniProt P21731).
T2 sequence (P21731 whole entry): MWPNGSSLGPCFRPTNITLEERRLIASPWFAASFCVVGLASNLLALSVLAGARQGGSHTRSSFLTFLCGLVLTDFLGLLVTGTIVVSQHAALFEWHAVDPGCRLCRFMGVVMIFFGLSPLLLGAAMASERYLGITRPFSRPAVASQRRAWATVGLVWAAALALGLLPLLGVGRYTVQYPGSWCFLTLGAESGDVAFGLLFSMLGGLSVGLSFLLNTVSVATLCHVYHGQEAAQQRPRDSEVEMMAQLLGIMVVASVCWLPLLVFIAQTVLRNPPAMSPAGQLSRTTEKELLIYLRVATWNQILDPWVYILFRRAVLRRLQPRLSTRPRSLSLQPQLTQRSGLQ

Assay [3] deals with Mu-type opioid receptor (Homo sapiens, UniProt P35372). The assay is described as follows: biochemical. The format is functional.
Mu-type opioid receptor, sequence (P35372 whole entry): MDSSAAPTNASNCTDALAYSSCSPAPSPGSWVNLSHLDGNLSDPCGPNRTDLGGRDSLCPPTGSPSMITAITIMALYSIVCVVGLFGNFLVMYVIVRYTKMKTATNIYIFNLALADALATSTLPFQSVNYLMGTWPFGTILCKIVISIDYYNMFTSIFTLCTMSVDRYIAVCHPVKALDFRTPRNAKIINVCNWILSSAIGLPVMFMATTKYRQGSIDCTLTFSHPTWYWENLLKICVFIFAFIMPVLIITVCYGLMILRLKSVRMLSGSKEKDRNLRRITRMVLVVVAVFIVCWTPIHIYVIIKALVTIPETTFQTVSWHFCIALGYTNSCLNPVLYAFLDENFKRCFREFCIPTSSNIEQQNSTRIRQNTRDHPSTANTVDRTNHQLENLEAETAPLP
The target of assay [4] is T3, Alpha-2A adrenergic receptor (Homo sapiens, UniProt P08913).
T3 sequence (P08913 whole entry): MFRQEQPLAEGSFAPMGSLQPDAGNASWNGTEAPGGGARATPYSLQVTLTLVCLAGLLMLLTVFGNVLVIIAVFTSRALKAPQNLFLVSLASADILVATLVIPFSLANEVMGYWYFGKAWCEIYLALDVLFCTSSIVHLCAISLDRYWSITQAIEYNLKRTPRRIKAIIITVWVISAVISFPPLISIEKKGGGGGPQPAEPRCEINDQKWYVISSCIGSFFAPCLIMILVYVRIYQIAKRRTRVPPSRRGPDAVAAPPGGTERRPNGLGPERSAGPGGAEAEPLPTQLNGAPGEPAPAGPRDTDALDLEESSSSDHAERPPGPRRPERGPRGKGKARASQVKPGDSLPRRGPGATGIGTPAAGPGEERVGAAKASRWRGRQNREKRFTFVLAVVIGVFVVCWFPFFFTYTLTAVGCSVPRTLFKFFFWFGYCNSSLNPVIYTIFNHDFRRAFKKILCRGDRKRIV
The format is functional, cell-based.

Assay [5] deals with T3, Alpha-2A adrenergic receptor. The format is functional, cell-based. This is another data set of the same source.
Assay [6] addresses D(3) dopamine receptor (Homo sapiens, UniProt P35462).
Assay [7] deals with T4, 5-hydroxytryptamine receptor 1A (Homo sapiens, UniProt P08908).
T4 sequence (P08908 whole entry): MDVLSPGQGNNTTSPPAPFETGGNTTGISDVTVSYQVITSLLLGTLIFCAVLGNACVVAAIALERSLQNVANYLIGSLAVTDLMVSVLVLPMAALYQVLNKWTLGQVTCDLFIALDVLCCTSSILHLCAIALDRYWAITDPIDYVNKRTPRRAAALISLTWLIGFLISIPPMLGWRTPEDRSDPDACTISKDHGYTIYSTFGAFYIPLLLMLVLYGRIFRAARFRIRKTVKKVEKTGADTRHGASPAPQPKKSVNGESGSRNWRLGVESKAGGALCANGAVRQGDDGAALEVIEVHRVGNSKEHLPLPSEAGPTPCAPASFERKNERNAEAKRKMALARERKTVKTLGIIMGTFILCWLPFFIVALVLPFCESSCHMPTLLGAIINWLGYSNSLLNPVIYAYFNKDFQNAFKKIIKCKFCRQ
The format is functional, cell-based.

The target in assay [8] is Voltage-gated inwardly rectifying potassium channel KCNH2 (Homo sapiens, UniProt Q12809). The class given is functional.
Voltage-gated inwardly rectifying potassium channel KCNH2, sequence (Q12809 whole entry): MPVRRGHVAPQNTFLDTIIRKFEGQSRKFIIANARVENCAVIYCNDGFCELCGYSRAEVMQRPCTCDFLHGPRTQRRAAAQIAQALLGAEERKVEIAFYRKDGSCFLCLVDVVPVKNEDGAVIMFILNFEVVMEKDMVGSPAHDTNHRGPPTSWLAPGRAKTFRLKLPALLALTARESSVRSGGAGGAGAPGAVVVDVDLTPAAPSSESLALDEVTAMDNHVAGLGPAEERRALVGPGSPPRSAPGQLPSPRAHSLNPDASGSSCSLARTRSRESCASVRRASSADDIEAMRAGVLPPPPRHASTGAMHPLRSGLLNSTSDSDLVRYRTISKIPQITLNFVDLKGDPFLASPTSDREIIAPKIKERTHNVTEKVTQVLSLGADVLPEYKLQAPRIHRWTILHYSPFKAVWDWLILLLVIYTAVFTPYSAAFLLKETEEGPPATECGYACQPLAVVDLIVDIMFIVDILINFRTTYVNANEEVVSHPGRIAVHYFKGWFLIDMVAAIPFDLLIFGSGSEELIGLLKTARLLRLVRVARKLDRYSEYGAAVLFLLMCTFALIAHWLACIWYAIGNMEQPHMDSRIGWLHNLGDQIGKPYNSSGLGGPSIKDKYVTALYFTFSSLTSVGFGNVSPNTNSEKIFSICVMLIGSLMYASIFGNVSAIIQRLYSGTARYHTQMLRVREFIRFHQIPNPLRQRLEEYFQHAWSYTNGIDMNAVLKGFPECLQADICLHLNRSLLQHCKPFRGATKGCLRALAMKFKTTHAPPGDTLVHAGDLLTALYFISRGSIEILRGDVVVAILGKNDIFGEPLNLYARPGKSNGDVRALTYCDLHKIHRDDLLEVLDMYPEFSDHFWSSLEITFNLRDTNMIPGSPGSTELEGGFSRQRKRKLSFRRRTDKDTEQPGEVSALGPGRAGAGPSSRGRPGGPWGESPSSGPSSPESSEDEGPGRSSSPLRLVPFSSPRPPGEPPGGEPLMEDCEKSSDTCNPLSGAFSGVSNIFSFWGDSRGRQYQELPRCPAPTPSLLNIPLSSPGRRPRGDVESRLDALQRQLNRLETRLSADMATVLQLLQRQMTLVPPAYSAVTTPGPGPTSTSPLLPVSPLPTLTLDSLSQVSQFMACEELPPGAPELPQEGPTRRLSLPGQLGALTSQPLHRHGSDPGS
For assay [9], the target named is cGMP-inhibited 3',5'-cyclic phosphodiesterase 3A (Homo sapiens, UniProt Q14432). The format is functional.
cGMP-inhibited 3',5'-cyclic phosphodiesterase 3A, sequence (Q14432 whole entry): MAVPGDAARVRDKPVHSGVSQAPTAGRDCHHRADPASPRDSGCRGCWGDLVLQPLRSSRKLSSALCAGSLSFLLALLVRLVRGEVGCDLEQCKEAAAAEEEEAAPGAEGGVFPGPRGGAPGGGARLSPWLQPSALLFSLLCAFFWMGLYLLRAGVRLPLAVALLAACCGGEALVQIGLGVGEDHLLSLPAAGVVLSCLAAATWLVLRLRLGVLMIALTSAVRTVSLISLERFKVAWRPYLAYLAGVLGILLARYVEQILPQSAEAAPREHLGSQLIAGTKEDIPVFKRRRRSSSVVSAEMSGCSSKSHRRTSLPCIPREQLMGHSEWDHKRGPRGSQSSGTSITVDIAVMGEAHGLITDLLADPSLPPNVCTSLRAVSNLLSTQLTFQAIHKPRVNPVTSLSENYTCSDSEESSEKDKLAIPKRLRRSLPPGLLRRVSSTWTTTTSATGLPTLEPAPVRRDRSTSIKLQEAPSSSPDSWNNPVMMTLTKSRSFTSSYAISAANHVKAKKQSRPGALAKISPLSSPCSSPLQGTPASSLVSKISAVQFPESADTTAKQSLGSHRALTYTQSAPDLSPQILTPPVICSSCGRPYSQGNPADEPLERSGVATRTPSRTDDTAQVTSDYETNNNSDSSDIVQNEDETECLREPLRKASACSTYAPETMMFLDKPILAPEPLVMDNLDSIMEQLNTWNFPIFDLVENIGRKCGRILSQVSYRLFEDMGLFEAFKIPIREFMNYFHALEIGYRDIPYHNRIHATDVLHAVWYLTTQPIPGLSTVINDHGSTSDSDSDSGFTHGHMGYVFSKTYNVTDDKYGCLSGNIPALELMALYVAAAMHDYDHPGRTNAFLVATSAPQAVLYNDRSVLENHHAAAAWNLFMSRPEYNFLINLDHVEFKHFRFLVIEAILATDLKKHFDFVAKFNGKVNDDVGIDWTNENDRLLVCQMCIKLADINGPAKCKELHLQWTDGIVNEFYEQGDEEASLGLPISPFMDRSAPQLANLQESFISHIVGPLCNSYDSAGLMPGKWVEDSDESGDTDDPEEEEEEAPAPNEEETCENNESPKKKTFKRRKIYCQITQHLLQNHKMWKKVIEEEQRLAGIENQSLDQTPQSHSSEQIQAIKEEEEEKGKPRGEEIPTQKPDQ
Assay [10] deals with T5, Muscarinic acetylcholine receptor M1 (Homo sapiens, UniProt P11229).
T5 sequence (P11229 whole entry): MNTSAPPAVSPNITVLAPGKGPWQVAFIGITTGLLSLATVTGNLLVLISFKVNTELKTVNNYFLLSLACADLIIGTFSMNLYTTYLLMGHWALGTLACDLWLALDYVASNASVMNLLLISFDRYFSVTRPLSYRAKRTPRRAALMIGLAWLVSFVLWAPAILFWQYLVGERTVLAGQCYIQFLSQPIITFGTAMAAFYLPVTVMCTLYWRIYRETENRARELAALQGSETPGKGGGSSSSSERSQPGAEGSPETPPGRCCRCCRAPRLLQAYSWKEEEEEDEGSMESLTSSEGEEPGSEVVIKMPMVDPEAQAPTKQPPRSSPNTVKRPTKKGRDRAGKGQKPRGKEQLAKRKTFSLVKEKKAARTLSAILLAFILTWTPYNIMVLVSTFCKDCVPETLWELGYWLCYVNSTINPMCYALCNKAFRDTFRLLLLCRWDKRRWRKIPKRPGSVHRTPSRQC
The format is functional.

The target in assay [11] is Muscarinic acetylcholine receptor M3 (Homo sapiens, UniProt P20309).
Muscarinic acetylcholine receptor M3, sequence (P20309 whole entry): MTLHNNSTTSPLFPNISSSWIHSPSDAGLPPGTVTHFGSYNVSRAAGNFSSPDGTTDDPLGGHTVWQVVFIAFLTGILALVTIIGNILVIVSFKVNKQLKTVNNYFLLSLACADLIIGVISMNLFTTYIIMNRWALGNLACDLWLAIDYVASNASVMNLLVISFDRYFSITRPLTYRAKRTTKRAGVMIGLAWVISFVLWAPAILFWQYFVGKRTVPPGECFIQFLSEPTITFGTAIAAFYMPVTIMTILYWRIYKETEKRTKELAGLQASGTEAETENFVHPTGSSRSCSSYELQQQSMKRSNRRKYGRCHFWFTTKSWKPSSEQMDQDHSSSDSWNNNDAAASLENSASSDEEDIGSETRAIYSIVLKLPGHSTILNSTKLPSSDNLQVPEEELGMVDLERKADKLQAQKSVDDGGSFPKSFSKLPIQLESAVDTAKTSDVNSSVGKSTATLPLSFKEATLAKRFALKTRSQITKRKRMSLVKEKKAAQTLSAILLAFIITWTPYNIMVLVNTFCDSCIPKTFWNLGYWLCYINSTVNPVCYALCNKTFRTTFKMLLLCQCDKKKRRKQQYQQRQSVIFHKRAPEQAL
Further: assay procedure not described here.

D(3) dopamine receptor, sequence (P35462 whole entry): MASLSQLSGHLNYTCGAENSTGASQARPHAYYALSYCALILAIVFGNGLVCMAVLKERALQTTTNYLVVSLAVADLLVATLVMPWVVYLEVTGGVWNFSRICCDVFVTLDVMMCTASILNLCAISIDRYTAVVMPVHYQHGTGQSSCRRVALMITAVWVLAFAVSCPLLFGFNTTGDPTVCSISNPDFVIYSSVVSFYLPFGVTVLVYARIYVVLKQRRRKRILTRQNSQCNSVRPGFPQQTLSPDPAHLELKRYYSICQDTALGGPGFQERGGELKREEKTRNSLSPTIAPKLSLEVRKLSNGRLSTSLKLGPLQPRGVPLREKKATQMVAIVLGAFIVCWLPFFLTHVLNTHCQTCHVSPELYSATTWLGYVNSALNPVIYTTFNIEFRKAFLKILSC

In general, AC50 refers to the concentration at which the activity in the assay is half-maximal. For `NC1CCN(c2nc3c(cc2F)c(=O)c(C(=O)O)cn3-c2ccc(F)cc2F)C1` (configuration not stated) [TOSUFLOXACIN], the AC50 in [1], in [2], in [3], in assay [4], in [5] and in [6] was above 30 µM throughout. In addition, the AC50 in assay [7], in [8] and in assay [9] was above 30 µM in each case.

As to `C[N@+]1(CCF)[C@@H]2CC[C@H]1C[C@@H](OC(=O)C(O)(c1ccccc1)c1ccccc1)C2`, the AC50 in [1] is above 30 µM; in assay [2], above 30 µM; in [3], above 30 µM; in [10], 0.0066 µM; in [4], above 30 µM; in assay [5] it was above 30 µM. Moreover, the AC50 was above 30 µM in assay [6]; 0.0031 µM in assay [11]; above 30 µM in assay [7]; 2.38 µM in assay [8]; above 30 µM in assay [9].

`C=C[C@@]1(C)CC(=O)[C@]2(O)[C@@]3(C)[C@@H](O)CCC(C)(C)[C@@H]3[C@H](O)[C@H](OC(C)=O)[C@@]2(C)O1` [COLFORSIN]: the AC50 in assay [1] was above 30 µM; in [2], above 30 µM; in [3] it was above 30 µM; in [10], above 30 µM; in assay [4], above 30 µM; in [5], 4.3 µM. The AC50 in assay [6], in assay [11], in [7], in assay [8] and in assay [9] was above 30 µM in each case.

Take `CCN(CC)CCNC(=O)c1cc(S(C)(=O)=O)ccc1OC` [TIAPRIDE]: the AC50 in [1] is above 30 µM; in assay [2] it was above 30 µM; in [3] it was above 30 µM; in [4] it was above 30 µM; in assay [5], above 30 µM; in [6], 0.36 µM. Further, the AC50 in assay [7] is above 30 µM; in assay [8] it was 8.5 µM; in assay [9] it was above 30 µM.

Turning to `CC(=O)[C@@]1(O)CC[C@H]2[C@@H]3C=C(Cl)C4=CC(=O)[C@@H]5C[C@@H]5[C@]4(C)[C@H]3CC[C@@]21C` [CYPROTERONE], the AC50 in assay [2] is above 10 µM; in [3], above 30 µM; in [10], above 10 µM; in assay [4], above 10 µM; in [5], above 10 µM; in [6], above 30 µM. For the same compound, the AC50 was above 30 µM in assay [11], above 10 µM in [7], above 30 µM in assay [8] and 16 µM in assay [9].

Take `CCN1CCCC1CNC(=O)c1cc(S(=O)(=O)CC)c(N)cc1OC` (configuration not stated) [AMISULPRIDE]: the concentration at half-maximal activity (AC50) is above 30 µM in assay [1]; above 30 µM in assay [3]; above 30 µM in assay [10]; above 30 µM in assay [4]; 13 µM in assay [5]; above 30 µM in assay [11]. The AC50 in assay [7] and in assay [9] was above 30 µM each time.

In the case of `CC1=C(C)C(=O)C(C(CCCCCC(=O)O)c2ccccc2)=C(C)C1=O` (configuration not stated) [SERATRODAST], the AC50 in assay [1], in assay [3], in assay [10], in assay [4], in assay [5] and in [6] was above 30 µM each time. For the same compound, the AC50 in [11] is above 30 µM; in assay [7], above 30 µM; in assay [8] it was above 30 µM; in assay [9], 25 µM.

As for `NC(=O)CN1CCCC1=O`, the AC50 in assay [1], in [2], in [3], in assay [4], in assay [5] and in [6] was above 30 µM each time. Also, the half-maximal activity concentration (AC50) in assay [7], in assay [8] and in assay [9] was above 30 µM in each case.
